{"source": "patent US9708370B2", "about": "“Azapeptides as CD36 binding compounds” (VALORISATION-RECHERCHE, LIMITED PARTNERSHIP, priority 2007, dated 2017)", "key": {"[1]": {"test_system": "vascular sprouting of aortic endothelium (aortic rings)", "assay": "Inhibition of microvascular sprouting from Matrigel-embedded aortic explants", "format": "cell-based, mice", "excerpt": "FIG. 1 illustrates disruption of vascular sprouting of aortic endothelium by azapeptide compound DBG178. Sprouting aortic endothelium (Von Willebrand factor positive) expressing CD36 is shown in the upper row of FIG. 1a. Vascular sprouting of aortic rings from C57BL/6 and CD36 null mice in the presence of DBG 178 at 10^−7M is shown in the lower row of FIG. 1a. Histograms of microvascular sprouts areas (mean±s.e.m) from aortic explants of C57BL/6 and CD36 null mice exposed to DBG concentrations from 10^−8 to 10^−6 M p<0.01 compared with control (Ctl) is shown in FIG. 1b.\nAortas were excised from 10-week-old male C57/Bl6+/+ and CD36−/− mice of C57/Bl6 background. The fibroadipose tissue was removed and aortas were sectioned into 2-mm-long cross-sections. The +/+ and −/− rings were covered by 50 μl of Matrigel and cultured for 4 days in EGM-2 medium (Clonetics Corp.). Explants were then exposed to vehicle alone or in presence of an azapeptide prototype DBG178 at the indicated concentrations (10^−8 to 10^−6 M) from day 4 to day 6 of culture in EGM-2 medium. Pictures of each individual explant were taken at day 4 and day 6 and EC growth was measured as the surface covered at day 6 minus the surface covered at day 4 Data were subject to analysis of variance (ANOVA) followed by Dunnet's post test to test for differences among groups. Outgrowing cells were characterized by double-labelling with monoclonal vWF antibody (1:100, Dako) and polyclonal CD36 (1:100, Santa Cruz) after acetone fixation using their respective alexa coupled secondary antibodies."}, "[2]": {"test_system": "laser injury induced choroidal neovascularisation", "assay": "Inhibition of choroidal neovascularisation in vivo, laser injury model", "set-up": "species or system mice", "excerpt": "The standard model of choroidal neovascularisation is the laser injury induced neovascularisation (47). In this model, which is applicable to rodents and primates, a laser beam is used to disrupt the RPE and the Bruchs membrane that separates the choroidal vasculature from the subretinal space. The following local inflammatory reaction in deep retina and choroid leads to a localized subretinal neovascularisation in a similar manner as that observed in AMD. This local neovascularisation can be quantified on flatmounts of RPE/choroid/sclera. The antiangiogenic effect of DBG178 on subretinal neovascularisation was tested by injecting intravitreally at effective concentration of 10^−7 to 10^−6 M within the eye and compared to that of intravitreal injection of saline used as a control.\nTen-week old C56/Bl6+/+ and CD36 null mice of C57Bl/6 background were anesthetized by intramuscular injection of ketamine (50 mg/kg) and xylazine (10 mg/kg). Pupils were fully dilated with 1% tropicamide. Coverslips positioned on the mouse cornea were used as a contact glass. Laser-coagulations were performed 1 to 2 disc diameters away from the papillae using an Argon laser (532 nm) mounted on a slit lamp (400 mW, 50 ms and 50 μm). […] The RPE/choroids were radially incised, flatmounted and viewed using a fluorescence microscope (BX51; Olympus). CNV were measured on photographs using Scion image analysis software."}, "human GHS-R1a": {"molecular_target": "human GHS-R1a (Homo sapiens (Human), UniProt Q92847)", "sequence (Q92847 whole entry)": "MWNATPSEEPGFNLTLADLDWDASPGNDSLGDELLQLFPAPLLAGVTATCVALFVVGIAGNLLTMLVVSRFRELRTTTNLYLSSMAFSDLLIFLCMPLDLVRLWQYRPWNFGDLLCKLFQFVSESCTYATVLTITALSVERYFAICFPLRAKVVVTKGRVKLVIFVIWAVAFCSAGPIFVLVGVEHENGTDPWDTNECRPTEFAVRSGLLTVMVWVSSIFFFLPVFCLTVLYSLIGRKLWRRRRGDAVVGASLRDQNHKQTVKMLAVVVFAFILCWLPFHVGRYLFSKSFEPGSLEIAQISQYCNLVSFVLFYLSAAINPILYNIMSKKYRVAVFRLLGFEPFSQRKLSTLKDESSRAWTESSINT", "assay": "GHS-R1a binding assay, competition with 125I-ghrelin on membranes of LLC-PK1 cells expressing human GHS-R1a"}}, "note": "“Also recorded” adds a separate entry of the source. Starred links: 1 amine or outer side, 2 acyl side, 3 side chain; linkers in the order of their positions; H or OH if unused. Non-standard residues stand in square brackets, D forms with d. Residues, ends and D or L forms follow the SMILES beside them. azaTyr = O=C(N(Cc1ccc(O)cc1)N[*:1])[*:2]", "data": [{"smiles": "C[C@H](NC(=O)[C@@H](Cc1c[nH]c2ccccc12)NC(=O)[C@@H](N)Cc1cnc[nH]1)C(=O)NN(Cc1ccc(O)cc1)C(=O)N[C@H](Cc1ccccc1)C(=O)N[C@@H](CCCCN)C(N)=O", "note": "[DBG178p, His-D-Trp-Ala-azaTyr-D-Phe-Lys-NH2] (H-H[dW]A[azaTyr][dF]K-NH2)", "values": [{"measurement": "inhibition of vascular sprouting of aortic rings", "setting": "[1]; aortic rings from C57BL/6 mice, 10^−7 to 10^−6 M", "result": "disrupt significantly; also recorded: significantly inhibited"}, {"measurement": "inhibitory effect on vascular sprouting of aortic rings", "setting": "[1]; aortic rings from CD36 null mice", "result": "not detected"}, {"measurement": "inhibition of the neovascular response", "setting": "[2]; C57BL/6 mice, intravitreal injection 3 and 7 days after laser injury, 10^−7 and 10^−6 M within the eye", "result": "more than 50%"}, {"measurement": "effect on the neovascular response", "setting": "[2]; eye of CD36 null mice, intravitreal injection", "result": "no effect"}, {"measurement": "IC50", "setting": "human GHS-R1a; Table 4, LLCPK-1 membranes overexpressing GHS-R1a, radioiodinated (1-28) rat ghrelin as tracer, read-out: EC50 (text: IC50 values from competition curves in GHS-R1a radioreceptor assay)", "result": 15.7, "unit": "µM"}, {"measurement": "binding affinity for GHS-R1a receptor in words", "setting": "human GHS-R1a; compared with GHRP-6", "result": "reducing the binding affinity"}]}]}
